How the values were obtained:
[1] = molecular target: T1, ASGP receptor (biotinylated ASGPR) (Homo sapiens, UniProt P07306); type: binding; conditions: SPR; Table 2; read-out: ASGPR SPR Binding KD
T1 construct: biotin (biotinylated)
T1 sequence (P07306 1-291): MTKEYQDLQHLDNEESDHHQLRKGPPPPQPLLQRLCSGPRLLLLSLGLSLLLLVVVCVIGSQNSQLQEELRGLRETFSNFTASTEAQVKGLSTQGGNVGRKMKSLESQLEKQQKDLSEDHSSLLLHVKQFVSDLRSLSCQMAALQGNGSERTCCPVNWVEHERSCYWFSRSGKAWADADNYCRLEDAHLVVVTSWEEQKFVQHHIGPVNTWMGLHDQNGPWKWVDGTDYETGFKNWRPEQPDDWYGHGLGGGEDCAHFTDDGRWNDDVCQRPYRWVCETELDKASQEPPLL

[2] = molecular target: TNF (Homo sapiens, UniProt P01375); assay: TNF FP Assay; type: binding; conditions: TNF 20 nM, 25° C., 2 hours
Experimental: TNF (20 nM) and test compound in 47 mM HEPES pH 6.5, 47 mM NaCl, 0.9 mM EDTA, 0.007% Triton X-100 were incubated at 25° C. for 2 hours. Fluorescence data was read with an Envision and plotted versus Compound concentration and fit to a single-site binding model.

TNF, sequence (P01375 77-233 limits assumed): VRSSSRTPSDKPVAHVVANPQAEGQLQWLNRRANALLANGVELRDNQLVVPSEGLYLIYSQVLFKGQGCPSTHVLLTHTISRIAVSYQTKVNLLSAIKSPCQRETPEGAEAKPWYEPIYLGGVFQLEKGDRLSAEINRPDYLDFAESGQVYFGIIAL

SMILES | Kd [1] [nM] | IC50 ([2]; Table 2) [nM] | IC50 ([2]; Table 2, numeric bound) [nM]
O=C(NC[C@H]1OC[C@H](Nc2cncc(C(F)(F)F)n2)[C@@H](O)[C@H]1O)N1CCN(Cc2ccc(-c3c[nH]c4ccncc34)c(OCCc3ccc(-c4cccc5ccncc45)cc3)c2)CC1 [compound 8] | < 100 | > 1000 | 
O=C(CCOCC(COCCC(=O)NCCOCCOCCOCCOC[C@H]1OC[C@H](Nc2cncc(C(F)(F)F)n2)[C@@H](O)[C@H]1O)NCC(=O)N1CCN(Cc2ccc(-c3c[nH]c4ccncc34)c(OCCc3ccc(-c4cccc5ccncc45)cc3)c2)CC1)NCCOCCOCCOCCOC[C@H]1OC[C@H](Nc2cncc(C(F)(F)F)n2)[C@@H](O)[C@H]1O [compound 2] | < 100 | > 1000 | 
CC1(C)C(=O)c2ccc(-c3cnc(N4CCN5C(=O)N(CCCNC(=O)COc6cccc(CC(=O)NC[C@H]7OC[C@H](Nc8cncc(C(F)(F)F)n8)[C@@H](O)[C@H]7O)c6)C[C@@H]5C4)nc3)nc2N1Cc1cccnc1C#N [compound 16] | < 100 | > 1000 | 
O=C(CNC[C@H]1OC[C@H](Nc2cncc(C(F)(F)F)n2)[C@@H](O)[C@H]1O)NCCOCCOCCOCc1ccc(-c2cccc3ccncc23)c(OCCc2ccc(-c3cccc4ccncc34)cc2)c1 [compound 6] |  | 100 to 500 | 
O=C(CC(=O)NC[C@H]1OC[C@H](Nc2cncc(C(F)(F)F)n2)[C@@H](O)[C@H]1O)NCCOCCOCCOCc1ccc(-c2cccc3ccncc23)c(OCCc2ccc(-c3cccc4ccncc34)cc2)c1 [compound 1] | < 100 | 100 to 500 | 
CC1(C)C(=O)c2ccc(-c3cnc(N4CCN5C(=O)N(CCCNC(=O)CNC[C@H]6OC[C@H](Nc7cncc(C(F)(F)F)n7)[C@@H](O)[C@H]6O)C[C@@H]5C4)nc3)nc2N1Cc1cccnc1C#N [compound 14] | < 100 | 100 to 500 | 
O=C(CCOCC(COCCC(=O)NCCOCCOCCOCCOC[C@H]1OC[C@H](Nc2cncc(C(F)(F)F)n2)[C@@H](O)[C@H]1O)NC(=O)COCCOCCOCCOCCOCC(=O)N1CCN(Cc2ccc(-c3c[nH]c4ccncc34)c(OCCc3ccc(-c4cccc5ccncc45)cc3)c2)CC1)NCCOCCOCCOCCOC[C@H]1OC[C@H](Nc2cncc(C(F)(F)F)n2)[C@@H](O)[C@H]1O [compound 5] |  |  | > 136
O=C(COCCOCC(=O)N1CCN(Cc2ccc(-c3c[nH]c4ccncc34)c(OCCc3ccc(-c4cccc5ccncc45)cc3)c2)CC1)NC[C@H]1OC[C@H](Nc2cncc(C(F)(F)F)n2)[C@@H](O)[C@H]1O [compound 3] | < 100 | < 100 | 
O=C(CCOCC(COCCC(=O)NCCOCCOCCOCCOC[C@H]1OC[C@H](Nc2cncc(C(F)(F)F)n2)[C@@H](O)[C@H]1O)NC(=O)COCCOCCOCC(=O)N1CCN(Cc2ccc(-c3c[nH]c4ccncc34)c(OCCc3ccc(-c4cccc5ccncc45)cc3)c2)CC1)NCCOCCOCCOCCOC[C@H]1OC[C@H](Nc2cncc(C(F)(F)F)n2)[C@@H](O)[C@H]1O [compound 9] | < 100 | > 1000 | 
CC1(C)C(=O)c2ccc(-c3cnc(N4CCN5C(=O)N(CCOCCNC(=O)CNC[C@H]6OC[C@H](Nc7cncc(C(F)(F)F)n7)[C@@H](O)[C@H]6O)C[C@@H]5C4)nc3)nc2N1Cc1cccnc1C#N [compound 10] | < 100 | > 1000 | 
CC1(C)C(=O)c2ccc(-c3cnc(N4CCN5C(=O)N(CCCNC(=O)CCN6CCN(CC(=O)NC[C@H]7OC[C@H](Nc8cncc(C(F)(F)F)n8)[C@@H](O)[C@H]7O)CC6)C[C@@H]5C4)nc3)nc2N1Cc1cccnc1C#N [compound 11] | < 100 | 100 to 500 | 
CC1(C)C(=O)c2ccc(-c3cnc(N4CCN5C(=O)N(CCCNC(=O)COc6ccc(CN7CCN(C[C@H]8OC[C@H](Nc9cncc(C(F)(F)F)n9)[C@@H](O)[C@H]8O)CC7)cc6)C[C@@H]5C4)nc3)nc2N1Cc1cccnc1C#N [compound 12] | < 100 | 100 to 500 | 
O=C(COCCOCCOCCOCCOCC(=O)N1CCN(Cc2ccc(-c3c[nH]c4ccncc34)c(OCCc3ccc(-c4cccc5ccncc45)cc3)c2)CC1)NC[C@H]1OC[C@H](Nc2cncc(C(F)(F)F)n2)[C@@H](O)[C@H]1O [compound 7] | < 100 | < 100 | 
CC1(C)C(=O)c2ccc(-c3cnc(N4CCN5C(=O)N(CCOCCNC(=O)c6ccc(C(=O)NC[C@H]7OC[C@H](Nc8cncc(C(F)(F)F)n8)[C@@H](O)[C@H]7O)cc6)C[C@@H]5C4)nc3)nc2N1Cc1cccnc1C#N [compound 18] |  | > 1000 | 
O=C(COc1ccc(CN2CCN(C[C@H]3OC[C@H](Nc4cncc(C(F)(F)F)n4)[C@@H](O)[C@H]3O)CC2)cc1)N1CCN(Cc2ccc(-c3c[nH]c4ccncc34)c(OCCc3ccc(-c4cccc5ccncc45)cc3)c2)CC1 [compound 4] | < 100 |  | > 112
CC1(C)C(=O)c2ccc(-c3cnc(N4CCN5C(=O)N(CCCNC(=O)c6ccc(C(=O)NC[C@H]7OC[C@H](Nc8cncc(C(F)(F)F)n8)[C@@H](O)[C@H]7O)cc6)C[C@@H]5C4)nc3)nc2N1Cc1cccnc1C#N [compound 13] | < 100 | > 1000 | 
CC1(C)C(=O)c2ccc(-c3cnc(N4CCN5C(=O)N(CCOCCNC(=O)[C@H]6CC[C@H](C(=O)NC[C@H]7OC[C@H](Nc8cncc(C(F)(F)F)n8)[C@@H](O)[C@H]7O)CC6)C[C@@H]5C4)nc3)nc2N1Cc1cccnc1C#N [compound 17] | < 100 | 500 to 1000 | 
CC1(C)C(=O)c2ccc(-c3cnc(N4CCN5C(=O)N(CCCNC(=O)[C@H]6CC[C@H](C(=O)NC[C@H]7OC[C@H](Nc8cncc(C(F)(F)F)n8)[C@@H](O)[C@H]7O)CC6)C[C@@H]5C4)nc3)nc2N1Cc1cccnc1C#N [compound 15] | < 100 | > 1000 | 

— patent US20260083851A1 (AVILAR THERAPEUTICS, INC., priority 2022, published 2026)
